Measured values taken from patent publication US10682409B2, “Therapeutic treatment” (priority 2012, dated 2020).

Assays:
Format in all cases: in vivo, human
[1] = Example 2 case study: child with ADHD on methylphenidate, then Periactin (height, weight, percentiles, attentiveness); details: for height percentile compared to girls their age / weight percentile compared to girls their age / weight: methylphenidate
Source text: Case study: A child was presented by their parents for symptoms of attention deficit hyperactivity disorder. Their size at evaluation was 4′1¾″ and 50 lbs, corresponding to the 81st and 50th percentiles when compared to girls their age. […] At three months following the initiation of treatment for ADHD, the child was 4′2⅞″ and 50½ lbs, corresponding to the 85th and 34rd percentiles when compared to girls their age. At one year, they were 4′4⅜″ and 53 lbs, corresponding to the 84th and 36th percentiles when compared to girls their age. At two years they were 4′5¾″ and 54 lbs, corresponding to the 72nd and 17th percentiles when compared to girls their age. At four years of treatment they were 4′7⅜″ and 59 lbs, corresponding to 70th and 14th percentiles when compared to girls their age. At five years of treatment they were 4′9⅞″ and 64½ lbs, corresponding to 59th and 7th percentiles when compared to girls their age.
The child was then prescribed Periactin at a dosage of 2 mg b.i.d. to attempt to stimulate appetite. The dose was taken in the morning and then in the afternoon. After one year they were 4′11½″ and 72½ lbs, corresponding to 33rd and 5th percentiles when compared to girls their age. The child was then prescribed Periactin at a dose of 4 mg b.i.d. After two months on this dose, they were 5′¼″ and 76 lbs, corresponding to 37th and 8th percentiles when compared to girls their age. At 8 months on this dose, they were 5′½″ and 80 lbs, corresponding to 41st and 8th percentiles when compared to girls their age. At one year on this dose, they were 5′2¾″ and 89½ lbs, corresponding to 51st and 17th percentiles when compared to girls their age. At 18 months on this dose, they were 5′3⅝″ and 99½ lbs, corresponding to 56th and 30th percentiles when compared to girls their age. Additionally, the attentiveness of the child increase following the prescription of Periactin as they increased their food intake during the day.

[2] = tested on: patients suffering from ADHD; test: Clinical Global Impression-Severity scale (CGI-S), Patients A-H
Protocol: In an embodiment, attentiveness is measured using the Clinical Global Impression rating scales to measure symptom severity, treatment response and the efficacy of treatments in treatment studies of patients with mental disorders (Guy, W., 1976). In an embodiment, attentiveness is measure using the Clinical Global Impression-Severity scale (“CGI-S”). In an embodiment, CGI-S is a 7-point scale that requires the clinician to rate the severity of the patient's illness at the time of assessment, relative to the clinician's past experience with patients who have the same diagnosis. Considering total clinical experience, a patient is assessed on severity of mental illness at the time of rating 1, normal, not at all ill; 2, borderline mentally ill; 3, mildly ill; 4, moderately ill; 5, markedly ill; 6, severely ill; or 7, extremely ill. In an embodiment, attentiveness is measured using the Clinical Global Impression-Improvement scale (“CGI-I”). […] In an embodiment, attentiveness is measured using the Clinical Global Impression-Efficacy Index (“CGI-E”).
(§1) The age range of the patients was from 6-15 years of age, with a mean age at the start of treatment for ADHD of 8.4 years of age. The mean age at the start of the combination treatment wherein the patient was administered an amphetamine or methylphenidate and an appetite stimulant was 10.3 years of age. The mean treatment period for the eight patients was 1,108 days with a mean of 2.55 ADHD medication changes during the treatment period. Attentiveness in the eight patients was measured using CGI-S and CGI-I. Patients weight and height velocity were measured to identify a difference in weight and height gain prior to and after addition of an appetite stimulant to the treatment for ADHD. Weight velocity was calculated by taking three time points, time 0 upon initiation of medication to treat ADHD, time 1 addition of an appetite stimulant, time 2 the last data point after initiation of combination treatment. The formula to calculate weight velocity for stimulant alone is (weightT1−weight T0)/days from Time 0 to time 1. The formula to calculate weight velocity for combination treatment is (weightT2−weight T1)/days from time 1 to time 2.

[3] = Examples 3-11: weight and height (velocity, percentile curve, course) of ADHD Patients A-H
Protocol: In an embodiment, a therapeutically effective amount of a therapeutic compound disclosed herein increases the weight or height of an individual is determined by an increase in the individual's weight or height velocity as compared to an individual nor receiving a therapeutic compound for appetite reduction. In an embodiment, weight and/or height velocity can be calculated by taking measurements of height and/or weight of an individual over a period of time and measuring an increase or decrease in an individual's height and/or weight over the period of time. In an embodiment, weight velocity is calculated by taking three time points, time 0 upon initiation of medication to treat ADHD, time 1 addition of an appetite stimulant, time 2 the last data point after initiation of combination treatment. In an embodiment, a formula to calculate weight and height velocity for stimulant alone is (weightT1−weight T0)/days from Time 0 to time 1. In an embodiment, a formula to calculate weight velocity for combination treatment is (weightT2−weight T1)/days from time 1 to time 2. In an embodiment, to evaluate whether weight velocity increased after addition of an appetite stimulant, the weight velocity of time 0 to time 1 is compared to the weight velocity from time 1 to time 2. In an embodiment, height velocity is calculated by taking three time points, time 0 upon initiation of medication to treat ADHD, time 1 addition of an appetite stimulant, time 2 the last data point after initiation of combination treatment. The formula to calculate height velocity for stimulant alone is (weightT1−weight T0)/days from Time 0 to time 1. The formula to calculate height velocity for combination treatment is (weightT2−weight T1)/days from time 1 to time 2. In an embodiment, to evaluate whether height velocity increased after addition of an appetite stimulant, the height velocity of time 0 to time 1 is compared to the height velocity from time 1 to time 2.
Eight patients, identified as patients A-H, that came in suffering from ADHD were treated for ADHD. […] Each patient was then prescribed an appetite simulant to be taken along with the amphetamine or methylphenidate. The patients' weight, height and attentiveness were then followed during the course of treatment.
as §1

[4] = tested on: patient suffering from ADHD; test: Example 1: patient suffering from ADHD treated with and without an appetite stimulant (appetite, blood glucose, attentiveness by CGI-S and CGI-I)
Source text: A patient suffering from ADHD is prescribed and administered an amphetamine to treat ADHD. The patient takes the amphetamine once a day in the morning or afternoon. […] As a result, the glucose level measured in the blood increases as shown in FIG. 1 and the patient's attentiveness recovers as measured by CGI-S and CGI-I. By taking the appetite stimulant during the time when the patient was awake, the patient increased their caloric intake during times when the patient needed to maintain their attentiveness in order to have reasonable cognition and/or social behaviour.

[5] = various forms of methylphenidate
[6] = Patient E, Concerta 27 mg then Focalin XR 10-15 mg alone, FIG. 12

SMILES: COC(=O)C(c1ccccc1)C1CCCCN1 (centres unmarked) [methylphenidate]
- height percentile compared to girls their age ([1]; five years): 59 percentile
- weight percentile compared to girls their age ([1]; five years): 7 percentile
- height percentile compared to girls their age ([1]; four years): 70 percentile
- weight percentile compared to girls their age ([1]; four years): 14 percentile
- weight ([1]; four years of treatment): 59 lbs
- height percentile compared to girls their age ([1]; one year): 84 percentile
- weight ([1]; one year): 53 lbs
- weight percentile compared to girls their age ([1]; one year): 36 percentile
- height percentile compared to girls their age ([1]; three months): 85 percentile
- weight percentile compared to girls their age ([1]; three months): 34 percentile
- height percentile compared to girls their age ([1]; two years): 72 percentile
- weight ([1]; two years): 54 lbs
- weight percentile compared to girls their age ([1]; two years): 17 percentile
- response of ADHD to treatment [1, 5]: responded well
- side-effect [1, 5]: suppression of appetite and a lack of significant weight gain

SMILES: COC(=O)[C@H](c1ccccc1)[C@H]1CCCCN1 [Focalin XR, dexmethylphenidate]
- CGI-S score ([2]; Patient E, Focalin XR 10 mg (before dose increase), FIG. 13): 6
- CGI-S score ([2]; Patient E, Focalin XR 15 mg from day 162, FIG. 13): 5
- CGI-S score ([2]; Patient G, Focalin XR 15 mg alone (dropped from 5), FIG. 17): 4
- weight course ([3]; Patient B, Focalin XR 10 mg then 15 mg alone, FIG. 6): slow and then became slightly erratic
- weight course [3, 6]: did not increase substantively

SMILES: COC(=O)C(c1ccccc1)C1CCCCN1 (centres unmarked) [Ritalin LA, methylphenidate]
- CGI-S score ([2]; Patient F, Ritalin LA 20 mg and Focalin 5 mg, FIG. 15): 7
- CGI-S score ([2]; Patient F, Ritalin LA 30 mg and Focalin 5 mg from day 46, FIG. 15): 6
- weight course ([3]; Patient F, Ritalin LA with Focalin, then Daytrana patch, without Periactin, FIG. 14): did not increase substantively

SMILES: C[C@@H](Cc1ccccc1)NC(=O)[C@@H](N)CCCCN [Vvyanase, lisdexamfetamine]
- CGI-S score ([2]; Patient H, Vvyanase 40 mg alone (dropped from 6), FIG. 19): 5
- weight course ([3]; Patient H, Vvyanase 40 mg alone, FIG. 18): little weight gain

SMILES: COC(=O)C(c1ccccc1)C1CCCCN1 (centres unmarked) [Concerta, methylphenidate]
- CGI-S score ([2]; Patient A, Concerta 18 mg alone, constant for almost 400 days, FIG. 5): 4
- CGI-S score ([2]; Patient C, Concerta 36 mg alone, FIG. 9): 5
- CGI-S score ([2]; Patient D, Concerta 18 mg before combination, FIG. 11): 6
- weight course ([3]; Patient A, Concerta 18 mg alone, from about day 371, FIG. 4): began to lose weight again
- weight course ([3]; Patient C, Concerta 36 mg alone, FIG. 8): little weight gain followed by weight loss
- weight course [3, 6]: did not increase substantively

SMILES: CC(N)Cc1ccccc1 (centres unmarked) [amphetamine]
- attentiveness as measured by CGI-S and CGI-I ([4]; amphetamine once a day alone): lack of attentiveness
- glucose level measured in the blood ([4]; amphetamine once a day alone, FIG. 1): drops
- appetite ([4]; amphetamine once a day in the morning or afternoon, alone): loss of appetite

SMILES: COC(=O)C(c1ccccc1)C1CCCCN1 (centres unmarked) [Daytrana patch, methylphenidate]
- CGI-S score ([2]; Patient F, Daytrana patch 15 mg (day 469), 20 mg (day 606), FIG. 15): 5
